The values below come from patent publication US6958345B2, “2-hydroxymethylcyclopropylidene methylpurines and -pyrimidines as antiviral agents” (The Regents of the University of Michigan, priority 1997, dated 2005).

For data set [1], the system named is HCMV. The data set can be described thus: HCMV plaque reduction assay in HFF cells. The data set is classed as cell-based, Human CMV (HCMV). The conditions noted are these: HFF cells; plaque reduction. On the procedure:
(§1) Cells and viruses. The routine growth and passage of KB cells was performed in monolayer cultures using minimal essential medium (MEM) with either Hanks salts [MEM(H)] or Earle salts [MEM(E)] supplemented with 10% calf serum. The sodium bicarbonate concentration was varied to meet the buffering capacity required. Cultures of diploid human foreskin fibroblasts (HFF) or MRC-5 cells were grown in medium consisting of MEM(E) with 10% fetal bovine serum. Cells were passaged at 1:2 to 1:10 dilutions according to conventional procedures by using 0.05% trypsin plus 0.02% EDTA in a HEPES buffered salt solution (HBS) (Shipman, C., Jr., Proc. Soc. Exp. Biol. 130:305-310 (1969)) as described previously. Turk, S. R., et al., Antimicrob. Agents Chemother. 31:544-550 (1987). HFF and MRC-5 cells were passaged only at 1:2 dilutions. CEM cells were maintained in suspension culture as detailed previously. Kucera, L. S., et al., AIDS Res. Human Retroviruses 9:307-314 (1993).
(§2) Virological procedures. Stock HCMV was prepared by infecting HFF cells at a multiplicity of infection (m.o.i.) of <0.01 plaque-forming units (p.f.u.) per cell. Cell growth medium was changed every four days until cytopathology was evident in all cells (approximately 21 days). Supernatant fluids were retained as the virus stock. High titer HSV-1 stocks were prepared by infecting KB cells at an m.o.i. of <0.1 as detailed previously. Turk, S. R., et al., Antimicrob. Agents Chemother. 31:544-550 (1987). Virus titers were determined using monolayer cultures of HFF cells for HCMV and monolayer cultures of BSC-1 cells for HSV-1 as described earlier. Prichard, M. N., et al., J. Virol. Methods 28:101-106 (1990). Briefly, HFF or BSC-1 cells were planted as described above in 96-well cluster dishes and incubated overnight at 37° C. in a humidified 3% CO297% air atmosphere. The next day cultures were inoculated with HCMV or HSV-1 and serially diluted 1:3 across the remaining eleven columns of the 96-well plate. Cultures were incubated at 37° C. for 2 hr to permit virus adsorption and then virus inoculum was replaced with 0.2 mL of fresh medium. Cultures were incubated for seven days for HCMV, two or three days for HSV-1, medium was removed, and the cell sheets were stained with 0.1% crystal violet in 20% methanol. Plaques were enumerated under 20-fold magnification in wells having the dilution which gave 5 to 20 plaques per well. Virus titers were calculated according to the following Formula: Titer (p.f.u./mL)=number of plaques×5×3^n; where n represents the nth dilution of the virus used to infect the well in which plaques were enumerated.
(a) HCMV. The effect of compounds on the replication of HCMV has been measured using a plaque reduction assay. HFF cells in 24-well cluster dishes were infected with approximately 100 p.f.u. of HCMV per cm^2 cell sheet using the procedures detailed above. Following virus adsorption, compounds dissolved in growth medium were added to duplicate wells in three to six selected concentrations. Following incubation at 37° C. for 7 to 10 days, cell sheets were fixed, stained with crystal violet and microscopic plaques enumerated as described above. Drug effects were calculated as a percentage of reduction in number of plaques in the presence of each drug concentration compared to the number observed in the absence of drug. Ganciclovir (DHPG) was used as a positive control in all experiments.
(§3) Data Analysis. Dose-response relationships were constructed by linearly regressing the percent inhibition of parameters derived in the preceding sections against log drug concentrations. Fifty-percent inhibitory (IC50) concentrations were calculated from the regression lines. Samples containing positive controls (acyclovir for HSV-1, ganciclovir for HCMV, and 2-acetylpyridine thiosemicarbazone for cytotoxicity) were used in all assays.
Background: Plaque reduction counts the foci of infection that form in a cell layer.

The test system of data set [2] is HCMV. The data set can be described thus: HCMV yield reduction assay in HFF cells. The class given is cell-based, Human CMV (HCMV). The conditions noted are these: footnote says IC90. How it is done: as §2
The effect of compounds on the replication of HCMV also was measured using a yield reduction assay. HFF cells were planted as described above in 96-well cluster dishes, incubated overnight, medium removed and the cultures were inoculated with HCMV at a m.o.i. of 0.5 to 1 p.f.u. per cell as reported elsewhere. After virus adsorption, inoculum was replaced with 0.2 mL of fresh medium containing test compounds. The first row of 12 wells was left undisturbed and served as virus controls. Each well in the second row received an additional 0.1 mL of medium with test compound at three times the desired final concentration. The contents of the 12 wells were mixed by repeated pipetting and then serially diluted 1:3 along the remaining wells. In this manner, six compounds could be tested in duplicate on a single plate with concentrations from 100 μM to 0.14 μM. Plates were incubated at 37° C. for seven days, subjected to one cycle of freezing and thawing; aliquots from each of the eight wells of a given column were transferred to the first column of a fresh 96-well monolayer culture of HFF cells. Contents were mixed and serially diluted 1:3 across the remaining eleven columns of the secondary plate. Each column of the original primary plate was diluted across a separate plate in this manner. Cultures were incubated, plaques were enumerated, and titers calculated as described above.
as §3

The subject of data set [3] is HFF cells. The data set can be described thus: Cytotoxicity in stationary HFF cells, microscopic inspection. The class given is cell-based, human. How it is done:
as §1
Cytotoxicity assays. Two different assays were used to explore cytotoxicity of selected compounds as we have detailed previously. (i) Cytotoxicity produced in stationary HFF cells and in growing CEM cells was determined by microscopic inspection of cells used in plaque and RT assays which were not affected by the virus. Turk, S. R., et al., Antimicrob. Agents Chemother. 31:544-550 (1987). (ii) The effect of compounds during two population doublings of KB cells was determined by crystal violet staining and spectrophotometric quantitation of dye eluted from stained cells. Prichard, M. N., et al., Antimicrob. Agents Chemother. 35:1060-1065 (1991).
as §3

Data set [4] deals with murine cytomegalovirus (MCMV). The data set can be described thus: Mortality of mice infected with murine cytomegalovirus. The class given is in vivo. How it is done: (§4) Compounds 1 (B=adenin-N^9-yl and guanin-N^9-yl) were evaluated in mice infected with murine cytomegalovirus (MCMV). Mice were infected intraperitonealy with sufficient MCMV to produce 90 to 100% mortality. Compounds were administered once daily for five days at doses of 5.6, 16.7 and 50 mg/kg by intraperitoneal injection in a 0.4% suspension of carboxymethylcellulose. Ganciclovir was administered in sterile water at the same doses as a positive control drug. All compounds were administered to separate groups of 15 mice each at 6, 24, and 48 hours after infection with MCMV. Groups of 10 uninfected mice also received test compounds as toxicity controls at the doses listed above.

A short description of data set [5]: Toxicity controls: uninfected mice given test compound. The data set is classed as in vivo. The conditions noted are these: 5.6, 16.7 and 50 mg/kg i.p. once daily for five days. How it is done:
as §4

A word on the IC50: it is the concentration needed to halve the response being measured. The low end stands for higher potency, the high end for lower potency. Usually IC90 stands for the concentration at which the effect reaches the 90% level. Higher therefore signals weaker potency. For `Nc1ncnc2c1ncn2C=C1CC1CO` (stereo not drawn) [1 (B = adenine), Example 5, syn-N^9-(2-hydroxymethylcyclopropylidenemethyl)adenine], the 50% inhibitory concentration (IC50) in data set [1] is 2 µM; in data set [3] it was more than 100 µM. In data set [2], this compound yielded a concentration for an effect of 90% (IC90) of 1.5 µM. In addition, the “mortality of MCMV-infected mice” value in data set [4] (50 mg/kg i.p. once daily for five days, placebo 100%) stood at 33%. In addition, the “effect on mortality at lower doses or delayed administration” value in data set [4] (lower doses, administration delayed until 24 or 48 hours after infection) is “Decreasing effects”. Besides, the “deaths in uninfected mice that received only drug” value in data set [5] was “No deaths were observed”.
